Assays:
bovine mincle CRD [1] = biological target: T1, bovine mincle CRD (Bos taurus, UniProt E1BHM0, I174T); assay: competition with […]-Man31-BSA on immobilized biotin-tagged CRD; format: binding; conditions: pH 7.8, 1.5 M NaCl, 2.5 mM CaCl2, 4 °C
T1 construct: gene CLEC4E; C-type carbohydrate recognition domain, residues 78-211
T1 sequence (E1BHM0 78-211 I174T): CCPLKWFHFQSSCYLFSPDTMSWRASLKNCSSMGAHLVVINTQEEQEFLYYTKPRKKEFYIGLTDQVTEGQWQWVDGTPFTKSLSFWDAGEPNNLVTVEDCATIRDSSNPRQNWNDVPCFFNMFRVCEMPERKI

bovine mincle CRD [2] = biological target: T1, bovine mincle CRD; assay: as above; format: binding
[3] = reported as KI(trehalose)/KI(acyltrehalose) ratio

Row | SMILES | KI (bovine mincle CRD [1]; [3]) | also measured
1 | CCCC(=O)OC[C@H]1O[C@H](O[C@H]2O[C@H](CO)[C@@H](O)[C@H](O)[C@H]2O)[C@H](O)[C@@H](O)[C@@H]1O [mono-n-butanoyl derivative of trehalose] | the mono-n-butanoyl derivative showed enhanced affinity compared with trehalose | –
2 | CCCCCCCC(=O)OC[C@H]1O[C@H](O[C@H]2O[C@H](CO)[C@@H](O)[C@H](O)[C@H]2O)[C@H](O)[C@@H](O)[C@@H]1O [mono-octanoyl trehalose] | – | Ki (bovine mincle CRD [2]): 58 ± 8 µM
3 | CC(=O)OC[C@H]1O[C@H](O[C@H]2O[C@H](COC(C)=O)[C@@H](O)[C@H](O)[C@H]2O)[C@H](O)[C@@H](O)[C@@H]1O [trehalose acetylated at the two 6-OH groups] | acetylation at the two 6-OH groups is tolerated | –
4 | CO[C@H]1O[C@H](CO)[C@@H](O)[C@H](O)[C@H]1O [α-methyl glucoside] | – | KI (bovine mincle CRD [1]): The mean ratio of KI values for α-methyl glucoside and trehalose

From paper PMC3789947, “Mechanism for Recognition of an Unusual Mycobacterial Glycolipid by the Macrophage Receptor Mincle” (The Journal of Biological Chemistry, 2013)
